Experimental findings from ChEMBL document CHEMBL3638933, “Pyrrolopyridazine JAK3 inhibitors and their use for the treatment of inflammatory and autoimmune diseases” (2014) are described below.

Assay [1] concerns the target T1, Tyrosine-protein kinase JAK3 (Homo sapiens, UniProt P52333).
T1 sequence (P52333 whole entry): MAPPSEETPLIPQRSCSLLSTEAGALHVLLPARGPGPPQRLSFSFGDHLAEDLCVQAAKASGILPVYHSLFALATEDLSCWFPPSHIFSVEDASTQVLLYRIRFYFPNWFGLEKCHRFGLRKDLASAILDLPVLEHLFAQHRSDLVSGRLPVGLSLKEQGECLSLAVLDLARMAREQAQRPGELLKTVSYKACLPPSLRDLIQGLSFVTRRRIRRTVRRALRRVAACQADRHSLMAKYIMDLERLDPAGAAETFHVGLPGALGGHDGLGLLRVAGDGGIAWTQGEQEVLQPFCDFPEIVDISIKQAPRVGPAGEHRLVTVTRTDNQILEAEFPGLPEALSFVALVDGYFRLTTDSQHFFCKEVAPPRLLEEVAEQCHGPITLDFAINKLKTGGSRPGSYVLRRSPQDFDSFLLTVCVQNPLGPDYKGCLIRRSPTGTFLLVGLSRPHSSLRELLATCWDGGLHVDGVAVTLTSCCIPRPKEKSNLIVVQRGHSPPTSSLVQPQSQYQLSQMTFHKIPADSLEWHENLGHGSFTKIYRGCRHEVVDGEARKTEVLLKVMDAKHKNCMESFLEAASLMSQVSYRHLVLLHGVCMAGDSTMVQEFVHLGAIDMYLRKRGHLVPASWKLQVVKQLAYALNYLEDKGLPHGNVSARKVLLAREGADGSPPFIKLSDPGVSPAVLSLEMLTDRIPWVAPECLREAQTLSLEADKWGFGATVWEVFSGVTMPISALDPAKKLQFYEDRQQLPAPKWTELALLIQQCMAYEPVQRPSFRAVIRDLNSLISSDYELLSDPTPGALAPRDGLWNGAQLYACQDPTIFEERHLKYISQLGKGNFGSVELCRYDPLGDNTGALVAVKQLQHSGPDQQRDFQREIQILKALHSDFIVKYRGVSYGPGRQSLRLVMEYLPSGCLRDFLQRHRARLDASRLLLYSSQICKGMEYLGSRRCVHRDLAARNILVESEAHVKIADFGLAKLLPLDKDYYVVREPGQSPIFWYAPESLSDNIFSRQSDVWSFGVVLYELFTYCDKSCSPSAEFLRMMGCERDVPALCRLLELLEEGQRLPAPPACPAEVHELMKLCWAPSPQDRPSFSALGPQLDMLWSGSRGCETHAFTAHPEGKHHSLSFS
The assay can be described thus: Reactions were incubated for 30 minutes at room temperature and stopped by the addition of cold trichloroacetic acid (TCA) to a final concentration of 15%. TCA precipitates were collected onto 384 well phosphocellulose filters (Millipore) using a Platemate to transfer the reaction mixture, washed on an EMBLA plate washer and the filters were quantitated using a TopCount 384-well liquid scintillation counter. […] Compounds were dissolved at 10 mM in dimethylsulfoxide (DMSO) and evaluated at six concentrations, each in triplicate. The final concentration of DMSO in the assay equaled 2%.

Assay [2] has as its target Tyrosine-protein kinase JAK1 (Homo sapiens, UniProt P23458). The assay can be described thus: Kinase Assay: The assay reactions were performed in U-bottom 384-well plates. The final assay volume was 30 ul prepared from 15 ul additions of enzyme and substrates (fluoresceinated peptide and ATP) and test compounds in assay buffer (20 mM HEPES pH 7.4, 10 mM MgCl2, 25 mM beta-glycerol phosphate, 0.015% Brij35 and 4 mM DTT). The reaction was initiated by the combination of GST-JAK1 enzyme with substrates and test compounds. The reactions were incubated at room temperature for 3 hours and terminated by adding 60 ul of 35 mM EDTA to each sample. Each reaction mixture was analyzed on the Caliper LabChip 3000 (Caliper, Hopkinton, MA) by electrophoretic separation of the fluorescent substrate and phosphorylated product. […] The final concentration of reagents in the assays was: ATP, 100 uM; fluoresceinated peptide.

Tyrosine-protein kinase JAK1, sequence (P23458 whole entry): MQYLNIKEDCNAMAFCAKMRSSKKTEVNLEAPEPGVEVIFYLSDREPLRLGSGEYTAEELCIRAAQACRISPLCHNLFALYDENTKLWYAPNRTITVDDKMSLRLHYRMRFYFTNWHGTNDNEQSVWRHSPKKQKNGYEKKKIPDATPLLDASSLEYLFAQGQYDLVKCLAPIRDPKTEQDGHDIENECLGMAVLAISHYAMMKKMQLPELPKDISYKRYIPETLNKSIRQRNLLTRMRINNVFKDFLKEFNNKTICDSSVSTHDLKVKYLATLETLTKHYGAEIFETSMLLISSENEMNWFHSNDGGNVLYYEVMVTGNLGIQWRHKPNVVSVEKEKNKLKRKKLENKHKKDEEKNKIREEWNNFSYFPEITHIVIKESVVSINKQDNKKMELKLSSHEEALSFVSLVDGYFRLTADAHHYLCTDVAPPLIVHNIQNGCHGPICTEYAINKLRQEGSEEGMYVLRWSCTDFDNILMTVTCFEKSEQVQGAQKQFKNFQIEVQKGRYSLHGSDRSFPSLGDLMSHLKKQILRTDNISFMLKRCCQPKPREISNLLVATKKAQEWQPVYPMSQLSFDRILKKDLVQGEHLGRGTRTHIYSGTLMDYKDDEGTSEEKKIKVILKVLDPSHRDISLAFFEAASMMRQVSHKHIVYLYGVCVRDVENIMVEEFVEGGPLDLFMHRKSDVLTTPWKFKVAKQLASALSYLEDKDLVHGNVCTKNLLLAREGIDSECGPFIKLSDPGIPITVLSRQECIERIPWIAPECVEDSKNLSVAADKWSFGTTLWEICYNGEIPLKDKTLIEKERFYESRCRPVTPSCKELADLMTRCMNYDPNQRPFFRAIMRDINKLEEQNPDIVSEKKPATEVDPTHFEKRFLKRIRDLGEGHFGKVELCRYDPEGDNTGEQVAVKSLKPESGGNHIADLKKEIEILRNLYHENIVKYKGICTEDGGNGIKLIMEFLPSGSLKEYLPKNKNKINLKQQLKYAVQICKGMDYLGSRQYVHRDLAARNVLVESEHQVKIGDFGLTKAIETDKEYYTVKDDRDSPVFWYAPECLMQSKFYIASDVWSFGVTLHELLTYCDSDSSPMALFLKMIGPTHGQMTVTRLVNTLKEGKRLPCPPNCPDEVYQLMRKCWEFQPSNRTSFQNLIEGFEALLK

Take `CC1(C)[C@H](Nc2c(C(N)=O)cnn3cc(-c4ccc(C#N)nc4)cc23)CC[C@]1(C)C(N)=O`: the half-inhibitory concentration (IC50) in assay [1] was found to be 1 nM; in assay [2] it was 5.8 nM.

The IC50 is the concentration needed to halve the response being measured.
